# Laboratory results as given in PubChem BioAssay (NCI).
#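 48-hour exposure; five concentrations; linearly interpolated endpoints. GI50 is the concentration that inhibits growth by half. TGI: concentration producing complete growth inhibition.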
# Key:
# Assay in all cases: NCI tumour cell line growth inhibition, 48 h
# [1] = tested on: A498 renal
# [2] = tested on: CAKI-1 renal
# [3] = tested on: HL-60(TB) leukemia
# [4] = tested on: NCI-H226 lung
# [5] = tested on: SF-295 CNS
# [6] = tested on: SK-MEL-28 melanoma
# [7] = tested on: SW-620 colon
# [8] = tested on: TK-10 renal
# [9] = tested on: HCT-15 colon
# [10] = tested on: HOP-62 NSCLC
Structure (SMILES),TGI [1] [µM],TGI [2] [µM],TGI [3] [µM],TGI [4] [µM],TGI [5] [µM],TGI [6] [µM],TGI [7] [µM],TGI [8] [µM],GI50 [1] [µM],GI50 [2] [µM],GI50 [9] [µM],TGI [9] [µM],GI50 [3] [µM],GI50 [10] [µM],TGI [10] [µM],GI50 [4] [µM],GI50 [6] [µM],GI50 [7] [µM],GI50 [8] [µM],GI50 [5] [µM]
ClC[Si]12OCCN(CCO1)CCO2,> 100,> 100,> 100,> 100,> 100,> 100,> 100,> 100,,,,,,,,,,,,
O=CC1(C2(C=O)c3ccccc3-c3ccccc32)c2ccccc2-c2ccccc21,5.36,3.62,3.21,7.24,,3.38,3.53,5.51,2.33,1.27,1.68,3.66,1.75,6.17,10.4,3.3,1.72,1.8,2.63,
CC1=CC2C(C(C)C)CC1C1C(=O)OC(=O)C21 (stereo not given),> 100,,77.8,> 100,,> 100,> 100,> 100,,,,> 100,,,> 100,,,,,
Oc1cc2ccccc2cc1-c1n[nH]c(=S)n1-c1ccc(Cl)cc1,,39.4,> 100,85,> 100,> 100,> 100,63,,12.5,7.96,> 100,19,,,23.7,36.4,23,18.9,13.1
BrC12c3ccccc3Sc3ccccc3C1(Br)c1ccccc12 (stereo not given),70.7,72.9,29.1,38.7,61.4,,> 100,99.6,,,,46.3,,,42.9,,,,,
CC(Oc1ccc2cc(C(=O)c3ccccc3)c(=O)oc2c1)C(=O)O (stereo not given),> 100,> 100,> 100,> 100,> 100,> 100,> 100,> 100,,,,,,,> 100,,,,,
CC(=O)c1ccc(NCN2C(=O)c3ccccc3C2=O)cc1,> 100,> 100,> 100,,> 100,> 100,> 100,> 100,,,,> 100,,,> 100,,,,,
CC(=O)OCC1OC(Sc2ccccn2)C=CC1OC(C)=O (stereo not given),> 100,,> 100,> 100,> 100,> 100,> 100,> 100,,,,,,,> 100,,,,,
CC(O[Si](C)(C)C)C1C=CC(C)n2c(=O)n(-c3ccccc3)c(=O)n21 (stereo not given),,> 100,> 100,,> 100,> 100,,> 100,,,,> 100,,,> 100,,,,,
O=C(CN1CCN(c2ccc(Cl)cc2)CC1)N1CCN(c2nnc(-c3ccccc3)c(-c3ccccc3)n2)CC1,> 100,> 100,> 100,> 100,> 100,,> 100,> 100,> 100,4.93,5.12,> 100,2.33,> 100,> 100,> 100,,38.9,> 100,4.88
